The structures appear in SMILES notation. Bounds are passed on as bounds.

The term IC50 denotes the point on the concentration scale where inhibition reaches its midpoint.

For this test, the target named is T1, human FASN (Homo sapiens, UniProt P49327).
T1 construct: was purified from SKBR3 cells using procedures modified from those in Jayakumar et al; endogenous in cells; host or cells: SKBR3 human breast cancer cells (ATCC); Endogenous enzyme purified by ammonium sulfate precipitation and a mono Q column
The experiment in a line: FASN Scintillation Proximity Flashplate Assay. The format is biochemical. To be noted: human FASN purified from SKBR3 cells; unstarred symbols. As to the method: Human FASN protein (SEQ ID NO. 1) was purified from SKBR3 cells using procedures modified from those in Jayakumar et al. PNAS 1995, 92:8695-8699. SKBR3 cells were obtained from ATCC and grown in DMEM high glucose medium supplemented with 10% FBS, 1 μg/mL bovine pancreas insulin, 100 U/mL penicillin and 100 µg/mL streptomycin. The confluent cells were trypsinized and washed three times with PBS buffer before frozen in liquid N2 and stored at −80° C. Frozen cells were thawed on ice and resuspended in lysis buffer (25 mM Tris-HCl, pH 7.0, 15 mM NaCl, 1 mM EDTA, and 1 mM DTT) with protease inhibitors. The cells were lysed by sonication, and the cell debris was removed by centrifugation at 20,000 rpm for 30 min. To the supernatant, neutralized saturated ammonium sulfate solution was added to a final concentration of 35%. The solution was left on ice for 1 hr, and the precipitated proteins were harvested by centrifugation at 20,000 rpm for 30 min. The proteins were redissolved in lysis buffer without NaCl and loaded on a mono Q column. Bound proteins were eluted with a linear gradient of NaCl in lysis buffer. Each fraction was analyzed by SDS-PAGE and FASN NADPH consumption assay. The fractions containing FASN were pooled and concentrated to 2-3 mg/mL. Glycerol was added to 20%, and the protein was frozen in liquid N2 and stored at −80° C.
Acetyl-coenzyme A, malonyl-coenzyme A, NADPH, bovine gamma globulin, and ORLISTAT were purchased from Sigma (St. Louis, Mo.). Tris(2-carboxyethyl) phosphine hydrochloride (TCEP) was purchased from Pierce Biotechnologies (Rockford, Ill.). [^3H]-acetyl-coenzyme A was purchased from Moravek Biochemicals (Brea, CA). FlashPlate™ PLUS phospholipid 96-well scintillant coated microplates were purchased from Perkin Elmer Life and Analytical Sciences (Shelton, CT). The method of the FASN Scintillation Proximity FlashPlate assay is similar to that described in Weiss and Glickman Assay Drug Dev Technol 2003, 1:161-6. In a 96-well polypropylene microplate, a dilution series (typical concentrations 60 nM-1.0 mM) of test compounds were prepared in DMSO followed by a 20-fold dilution into FASN assay buffer (50 mM potassium phosphate, pH 7.0, 1.0 mM EDTA, 0.01% NP-40), of which 5.0 μL each was transferred to a FlashPlate® PLUS 96-well plate and mixed with 35 μL FASN assay buffer plus 0.5 mg/mL bovine gamma globulin and 1 mM TCEP. FASN protein (10 μL, 10 nM) was added per well, and the microplate was incubated at 37° C. for 30 min. 10 μL of 20 mM NADPH was added, and the reaction was initiated by addition of […] substrate mixture to final concentrations of 1 nM FASN, 100 μM acetyl-coenzyme A, 6 μCi [^3H]-acetyl-coenzyme A, 300 μM malonyl-coenzyme A, 2 mM NADPH, 0.5 mg/mL bovine gamma globulin, and 1 mM TCEP in a volume of 100 μL per well. Assay plates were incubated for 2 hr at 37° C. and the reaction was stopped with 2 μL of 2.5 mM stock solution of ORLISTAT in DMSO to ˜50 μM. The plates were read in a Wallac 1450 Microbeta Plus liquid scintillation counter (Perkin Elmer, Waltham, Mass.), and counts per minute (CPM) were collected over 2 min. Each inhibitor well CPM was compared to the maximum FASN enzyme activity (Max) CPM and the background (Min) CPM, as measured by omission of FASN enzyme in the background well. % Inhibition values were calculated, and curves were fitted by a four-parameter logistic function to yield IC50 values:
Compounds were assayed as inhibitors of human FASN using the above-described FASN Scintillation Proximity Flashplate Assay (IC50; nM) or FASN NADPH Consumption Assay (*) (IC50; nM). The corresponding activity of the isolated compound is also provided along with the measured mass (ES^+).

T1 sequence (P49327 whole entry): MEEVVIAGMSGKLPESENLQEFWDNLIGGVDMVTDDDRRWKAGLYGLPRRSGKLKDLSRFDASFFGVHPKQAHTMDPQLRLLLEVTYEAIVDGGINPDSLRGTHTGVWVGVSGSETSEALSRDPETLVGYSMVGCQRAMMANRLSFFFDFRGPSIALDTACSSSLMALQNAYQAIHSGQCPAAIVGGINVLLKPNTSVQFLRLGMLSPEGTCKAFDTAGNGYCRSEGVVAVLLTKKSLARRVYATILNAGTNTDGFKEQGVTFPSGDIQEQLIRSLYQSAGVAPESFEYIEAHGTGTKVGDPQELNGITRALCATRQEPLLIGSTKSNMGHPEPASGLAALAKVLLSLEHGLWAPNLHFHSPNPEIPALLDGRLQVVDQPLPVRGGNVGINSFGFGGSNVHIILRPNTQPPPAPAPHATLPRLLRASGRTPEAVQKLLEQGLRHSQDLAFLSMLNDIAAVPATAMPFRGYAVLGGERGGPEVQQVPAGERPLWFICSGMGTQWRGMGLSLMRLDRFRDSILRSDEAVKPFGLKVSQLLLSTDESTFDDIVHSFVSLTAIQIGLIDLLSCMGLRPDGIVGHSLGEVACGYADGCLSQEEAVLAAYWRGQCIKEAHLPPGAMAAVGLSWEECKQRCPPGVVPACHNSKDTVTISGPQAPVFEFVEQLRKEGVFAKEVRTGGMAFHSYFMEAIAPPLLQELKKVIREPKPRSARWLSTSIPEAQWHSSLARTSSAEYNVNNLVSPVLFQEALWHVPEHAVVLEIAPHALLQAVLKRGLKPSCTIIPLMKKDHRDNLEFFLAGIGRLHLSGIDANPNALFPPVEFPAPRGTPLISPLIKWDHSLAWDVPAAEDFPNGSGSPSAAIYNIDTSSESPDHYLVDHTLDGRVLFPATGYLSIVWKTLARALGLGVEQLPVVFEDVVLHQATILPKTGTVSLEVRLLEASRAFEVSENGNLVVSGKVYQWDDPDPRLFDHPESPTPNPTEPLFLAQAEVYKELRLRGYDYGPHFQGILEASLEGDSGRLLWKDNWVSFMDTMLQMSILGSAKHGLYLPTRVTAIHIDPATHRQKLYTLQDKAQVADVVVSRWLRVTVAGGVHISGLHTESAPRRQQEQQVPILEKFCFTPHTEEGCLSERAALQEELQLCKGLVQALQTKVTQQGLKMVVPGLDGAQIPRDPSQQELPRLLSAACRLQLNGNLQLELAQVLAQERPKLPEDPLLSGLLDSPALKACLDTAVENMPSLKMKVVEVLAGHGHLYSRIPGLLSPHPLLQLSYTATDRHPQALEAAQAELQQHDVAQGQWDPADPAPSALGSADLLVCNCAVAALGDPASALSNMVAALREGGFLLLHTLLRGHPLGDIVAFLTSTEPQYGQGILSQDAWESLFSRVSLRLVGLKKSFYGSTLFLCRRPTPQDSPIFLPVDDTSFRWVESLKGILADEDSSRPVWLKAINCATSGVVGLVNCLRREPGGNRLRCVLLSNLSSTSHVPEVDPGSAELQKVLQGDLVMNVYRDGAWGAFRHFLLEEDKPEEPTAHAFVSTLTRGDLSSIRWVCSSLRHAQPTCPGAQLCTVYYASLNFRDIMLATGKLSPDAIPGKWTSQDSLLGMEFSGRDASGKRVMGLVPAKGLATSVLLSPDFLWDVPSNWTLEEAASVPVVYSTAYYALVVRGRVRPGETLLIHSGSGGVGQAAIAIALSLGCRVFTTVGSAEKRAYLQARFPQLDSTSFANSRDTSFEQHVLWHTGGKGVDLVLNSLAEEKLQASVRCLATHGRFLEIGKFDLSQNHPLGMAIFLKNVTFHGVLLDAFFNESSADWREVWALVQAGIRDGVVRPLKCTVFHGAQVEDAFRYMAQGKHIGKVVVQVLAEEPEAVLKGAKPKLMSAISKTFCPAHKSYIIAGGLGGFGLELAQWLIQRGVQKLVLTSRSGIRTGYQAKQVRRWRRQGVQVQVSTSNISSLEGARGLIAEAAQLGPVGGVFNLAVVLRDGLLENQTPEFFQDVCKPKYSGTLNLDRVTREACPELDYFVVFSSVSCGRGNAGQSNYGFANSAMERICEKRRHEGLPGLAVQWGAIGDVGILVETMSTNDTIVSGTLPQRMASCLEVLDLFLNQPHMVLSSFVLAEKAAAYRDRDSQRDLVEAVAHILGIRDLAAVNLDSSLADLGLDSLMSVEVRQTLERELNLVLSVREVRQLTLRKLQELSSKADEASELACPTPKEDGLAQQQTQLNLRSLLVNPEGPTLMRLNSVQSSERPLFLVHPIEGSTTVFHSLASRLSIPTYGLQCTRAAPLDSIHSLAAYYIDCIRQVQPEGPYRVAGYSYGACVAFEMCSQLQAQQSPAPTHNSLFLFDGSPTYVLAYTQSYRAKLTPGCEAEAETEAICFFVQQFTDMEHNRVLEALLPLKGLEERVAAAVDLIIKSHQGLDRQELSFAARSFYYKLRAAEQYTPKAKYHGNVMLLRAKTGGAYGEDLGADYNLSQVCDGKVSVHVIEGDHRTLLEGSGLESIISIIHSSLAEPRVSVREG

Turning to `COc1ccc(N(C(=O)n2nnn(-c3ccccc3OC)c2=O)C(C)C)cc1C(=O)OCc1ccccc1`, the IC50 is below 15 nM.
`CCN(C(=O)n1nnn(-c2ccccc2OC)c1=O)c1ccc(C(=O)OCc2ccccc2)cc1`: the half-inhibitory concentration (IC50) was in the range of 15 to 100 nM.
`Cc1ccc(C)n1-c1ccc(N(C(=O)n2nnn(-c3c(F)cccc3F)c2=O)C2CCCCC2)cc1C(=O)O` returned an IC50 below 15 nM.
For `CCN1CCN(c2ccc(N(C(=O)n3nnn(-c4c(F)cccc4F)c3=O)C3CCCCC3)cc2C(=O)O)CC1`, the IC50 was 15 to 100 nM.
For the molecule `COC(=O)c1cc(N(C(=O)n2nnn(-c3c(F)cccc3F)c2=O)C2CCCCC2)ccc1OC`, the IC50 is below 15 nM.
`COCCOc1ccc(N(C(=O)n2nnn(-c3c(F)cccc3F)c2=O)C2CCCCC2)cc1C(=O)O` returned an IC50 below 15 nM.
In the case of `COc1ccc(N(C(=O)n2nnn(-c3c(F)cccc3F)c2=O)C2CCCCC2)cc1C(=O)N(C)C`, the IC50 is below 15 nM.
In turn, `COc1ccc(N(C(=O)n2nnn(-c3c(F)cccc3F)c2=O)C2CCCCC2)cc1C(N)=O` registered a half-maximal inhibitory concentration (IC50) below 15 nM.
`CC(C)(C)OC(=O)N1CCN(c2ccc(N(C(=O)n3nnn(-c4c(F)cccc4F)c3=O)C3CCCCC3)cc2C(=O)O)CC1` registered an IC50 below 15 nM.
Then `CC(C)(C)OC(=O)N1CCN(c2ccc(N(C(=O)n3nnn(-c4c(F)cccc4F)c3=O)C3CCCCC3)cc2C(=O)OCc2ccccc2)CC1`, with below 15 nM; and `O=C(O)c1cc(N(C(=O)n2nnn(-c3c(F)cccc3F)c2=O)C2CCCCC2)ccc1N1CCOCC1`, with 15 to 100 nM.
As for `COc1cc(OC)c(N(C(=O)n2nnn(-c3c(F)cccc3F)c2=O)C2CCCCC2)cc1C(=O)O`, the IC50 is below 15 nM.
`CN(C)c1ccc(N(C(=O)n2nnn(-c3c(F)cccc3F)c2=O)C2CCCCC2)cc1C(=O)O` registered an IC50 below 15 nM.
As to `O=C(O)c1cc(N(C(=O)n2nnn(-c3c(F)cccc3F)c2=O)C2CCCCC2)cc2c1OCC2`, the IC50 is below 15 nM.
Then `O=C(OCc1ccccc1)c1cc(N(C(=O)n2nnn(-c3c(F)cccc3F)c2=O)C2CCCCC2)ccc1NCc1ccccc1`, with below 15 nM; and `COc1ccc(N(C(=O)n2nnn(-c3c(F)cccc3F)c2=O)C2CCCCC2)c(OC)c1C(=O)O`, with 15 to 100 nM; and `COCCOCOc1ccc(N(C(=O)n2nnn(-c3c(F)cccc3F)c2=O)C2CCCCC2)cc1C(=O)O`, with below 15 nM.
The result for `COc1ccc(N(C(=O)n2nnn(-c3c(F)cccc3F)c2=O)C2CCCCC2)c(OC)c1C(=O)OCc1ccccc1` reads below 15 nM.
Then `COCCOCOc1ccc(N(C(=O)n2nnn(-c3c(F)cccc3F)c2=O)C2CCCCC2)cc1C(=O)OCc1ccccc1`, with below 15 nM; and `Nc1ccc(N(C(=O)n2nnn(-c3c(F)cccc3F)c2=O)C2CCCCC2)cc1C(=O)O`, with below 15 nM.
`CC(C)(C)OC(=O)Nc1ccc(N(C(=O)n2nnn(-c3c(F)cccc3F)c2=O)C2CCCCC2)cc1C(=O)O`: the IC50 was below 15 nM.
As to `COc1ccc(C(=O)O)cc1N(C(=O)n1nnn(-c2c(F)cccc2F)c1=O)C(C)C`, the IC50 was below 15 nM.
As to `CC(C)N(C(=O)n1nnn(-c2c(F)cccc2F)c1=O)c1ccc(NS(C)(=O)=O)c(C(=O)O)c1`, the half-inhibitory concentration (IC50) was below 15 nM.
For `COc1ccc(C(=O)O)cc1N(C(=O)n1nnn(-c2c(F)cccc2F)c1=O)C1CCCCC1`, the concentration for half-maximal inhibition (IC50) was below 15 nM.
For the molecule `CC(C)N(C(=O)n1nnn(-c2c(F)cccc2F)c1=O)c1ccc(N(S(C)(=O)=O)S(C)(=O)=O)c(C(=O)O)c1`, the half-inhibitory concentration (IC50) was below 15 nM.
As to `COc1ccc(N(C(=O)n2nnn(-c3c(F)cccc3F)c2=O)C2CCCCC2)cc1C(=O)O`, the concentration for half-maximal inhibition (IC50) was below 15 nM.
`CC(C)N(C(=O)n1nnn(-c2c(F)cccc2F)c1=O)c1ccc(N(S(C)(=O)=O)S(C)(=O)=O)c(C(=O)OCc2ccccc2)c1` registered an IC50 below 15 nM.
In the case of `O=C(O)c1ccc(N(C(=O)n2nnn(-c3c(F)cccc3F)c2=O)C2CCCCC2)cc1O`, the IC50 is below 15 nM.
For the molecule `CC(C)N(C(=O)n1nnn(-c2c(F)cccc2F)c1=O)c1cccc(C(=O)O)c1`, the IC50 is 15 to 100 nM.
On to `CC(C)N(C(=O)n1nnn(-c2c(F)cccc2F)c1=O)c1ccc(N)c(C(=O)OCc2ccccc2)c1`, for which the IC50 is below 15 nM.
`CC(C)N(C(=O)n1nnn(-c2c(F)cccc2F)c1=O)c1ccc(NC(=O)OC(C)(C)C)c(C(=O)O)c1` registered a concentration for half-maximal inhibition (IC50) below 15 nM.
For the molecule `O=C(O)c1cc(N(C(=O)n2nnn(-c3c(F)cccc3F)c2=O)C2CCCCC2)ccc1O`, the IC50 is below 15 nM.
Turning to `CC(C)N(C(=O)n1nnn(-c2c(F)cccc2F)c1=O)c1ccc(NC(=O)OC(C)(C)C)c(C(=O)OCc2ccccc2)c1`, the IC50 was below 15 nM.
In turn, `CC(C)N(C(=O)n1nnn(-c2c(F)cccc2F)c1=O)c1ccc(C(=O)O)cc1F` displayed an IC50 below 15 nM.
On to `COc1cc(C(=O)O)cc(N(C(=O)n2nnn(-c3c(F)cccc3F)c2=O)C(C)C)c1`, for which the 50% inhibitory concentration (IC50) is below 15 nM.
Molecule `CC(C)N(C(=O)n1nnn(-c2c(F)cccc2F)c1=O)c1ccc(C(=O)OCc2ccccc2)cc1Oc1ccccc1` yielded an IC50 below 15 nM.
Molecule `CCC(CC)N(C(=O)n1nnn(-c2c(F)cccc2F)c1=O)c1cccc(C(=O)O)c1` returned a concentration for half-maximal inhibition (IC50) of 15 to 100 nM.
The result for `CC(C)N(C(=O)n1nnn(-c2c(F)cccc2F)c1=O)c1ccc(C(=O)OCc2ccccc2)cc1F` reads below 15 nM.
On to `CC(C)N(C(=O)n1nnn(-c2c(F)cccc2F)c1=O)c1ccc(Cl)c(C(=O)O)c1`, for which the IC50 was below 15 nM.
Take `CCC(CC)N(C(=O)n1nnn(-c2c(F)cccc2F)c1=O)c1cccc(C(=O)OCc2ccccc2)c1`: the IC50 is below 15 nM.
In turn, `COc1cc(N(C(=O)n2nnn(-c3c(F)cccc3F)c2=O)C2CCCCC2)ccc1C(=O)O` had a half-maximal inhibitory concentration (IC50) below 15 nM.
Then `COc1cc(N(C(=O)n2nnn(-c3c(F)cccc3F)c2=O)C(C)C)ccc1C(=O)O`, with below 15 nM.
For the molecule `CC(C)N(C(=O)n1nnn(-c2c(F)cccc2F)c1=O)c1ccc(Cl)c(C(=O)OCc2ccccc2)c1`, the IC50 was below 15 nM.
Consider `O=C(NCc1ccccc1)c1cccc(N(C(=O)n2nnn(-c3c(F)cccc3F)c2=O)C2CCCCC2)c1`, for which the IC50 is below 15 nM.
The result for `COc1cc(OC)c(N(C(=O)n2nnn(-c3c(F)cccc3F)c2=O)C(C)C)cc1C(=O)O` reads 15 to 100 nM; that for `CCN(C(=O)n1nnn(-c2c(Cl)cccc2Cl)c1=O)c1ccc(OC)cc1`, 15 to 100 nM; that for `CCN(C(=O)n1nnn(-c2c(Cl)cccc2Cl)c1=O)c1ccc(C(=O)O)c(Cl)c1`, below 15 nM.
`CCN(C(=O)n1nnn(-c2c(Cl)cccc2Cl)c1=O)c1ccc(C(=O)OC)cc1`: the half-maximal inhibitory concentration (IC50) is 15 to 100 nM.
With `CCN(C(=O)n1nnn(-c2c(Cl)cccc2Cl)c1=O)c1ccc(Cl)c(C(=O)OCc2ccc(OC)cc2)c1`, the IC50 is below 15 nM.
In turn, `CCN(C(=O)n1nnn(-c2c(Cl)cccc2Cl)c1=O)c1ccc(C(=O)O)cc1Cl` showed a half-inhibitory concentration (IC50) below 15 nM.
Then `CCN(C(=O)n1nnn(-c2c(Cl)cccc2Cl)c1=O)c1cccc(C(=O)O)c1`, with 15 to 100 nM; and `CCN(C(=O)n1nnn(-c2c(Cl)cccc2Cl)c1=O)c1ccc(C(=O)O)cc1`, with below 15 nM; and `CCN(C(=O)n1nnn(-c2c(F)cccc2OC)c1=O)c1ccccc1Oc1ccccc1`, with 15 to 100 nM.
`CCC(C)N(C(=O)n1nnn(-c2c(F)cccc2OC)c1=O)c1cccc(C(=O)O)c1` (centres unmarked): the IC50 is below 15 nM.
Molecule `COc1ccc(N(C(=O)n2nnn(-c3c(F)cccc3OC)c2=O)C2CCCC2)cc1C(=O)O` yielded a half-maximal inhibitory concentration (IC50) below 15 nM.
Then `CCN(C(=O)n1nnn(-c2c(F)cccc2OC)c1=O)c1ccc(OC)c(C(=O)O)c1`, with 15 to 100 nM.

Source of the values: patent US9346769B2, “Tetrazolones as inhibitors of fatty acid synthase” (Infinity Pharmaceuticals, Inc., priority 2010, dated 2016).
